Series [1] is classed as in vivo, human (healthy subjects). On the procedure: A double-blind, randomised, Phase 1, single ascending dose study to evaluate the safety, tolerability and pharmacokinetic profile of intranasal 5-MeO-DMT benzoate in healthy subjects was performed.
The nature of series [2]: Phase 1 single ascending dose study, intranasal 5-MeO-DMT HCl, plasma pharmacokinetics. The series is classed as in vivo, human (healthy subjects). On the procedure:
In an embodiment, there is provided a dose-proportional salt of 5-MeO-DMT for use in the methods disclosed herein. In an embodiment, the dose-proportional salt of 5-MeO-DMT is the benzoate salt. A double-blind, randomised, Phase 1, single ascending dose study to evaluate the safety, tolerability and pharmacokinetic profile of intranasal 5-MeO-DMT HCl (5-MeO-DMT HCl, HPMC, water for injection (WFI) and a sodium hydroxide solution to adjust pH) in healthy subjects was performed.

Series [3] can be described thus: Hygroscopicity / water uptake. The series is classed as physicochemical. The conditions noted are these: for total water uptake: between 0% RH and 90% RH at 25° C. On the procedure:
(§1) In an embodiment, the 5-MeO-DMT is administered as a crystalline form of the benzoate salt. Crystalline forms of the benzoate salt are disclosed in WO2021250434 and are incorporated herein. Crystalline forms of the hydrochloride salt are also disclosed in WO2021250434 and are incorporated herein. In an embodiment, crystalline 5-MeO-DMT hydrochloride is characterised by peaks in an X-ray powder diffraction (XRPD) diffractogram at 2θ values of 9.2°±0.1°, 12.2°±0.1°, 14.1°±0.1°, 15.0°±0.1°, 18.5°±0.1°, and 19.5°±0.1°, as measured using an X-ray wavelength of 1.5406 Å. In an embodiment, the 5-MeO-DMT salt is a non-hygroscopic salt. […] The non-hygroscopic, highly soluble HBr salt of 5-MeO-DMT therefore affords the advantage of removing the need for costly and burdensome processing measures, for example the need for low humidity manufacturing environment.

Series [4] can be described thus: Solubility of salts. The class given is physicochemical. The conditions noted are these: compared to moderately hygroscopic salts, e.g. benzoate or oxalate. On the procedure:
as §1

Series [5] is described as follows: 30-item Mystical Experience Questionnaire (MEQ30), mystical / peak experience. The class given is in vivo, human. From the text:
The MEQ30 is a self-report measure that has been used to measure mystical-type experiences in studies of psychedelics. It is known that the occurrence of a mystical experience, following treatment with a psychedelic, is a primary predictor of therapeutic outcomes in patients. Typically, a complete mystical experience is defined as scoring 60% or more on all four factors of the MEQ30. The four factors of the MEQ30 are: mystical, positive mood, transcendence of time and space, and ineffability. Subjects being treated with the 5-MeO-DMT salt are coached prior to dosing, but nevertheless for some subjects, a rapid onset of an intense Mystical Experience can be unsettling. In such a scenario, the medical practitioners and associated support system is also put under an additional monitoring and care load. So, the frequency/likelihood of rapid onset of an intense Mystical Experience using the 5-MeO-DMT salt should be minimised or substantially eliminated.
Each quadrant of a pie is fully coloured if a value equal to or greater than 3 is reached for that dimension (wherein the four quadrants represent the four factors of the MEQ30: mystical, positive mood, transcendence of time and space, and ineffability). Each pie represents a single individual who received the respective dose. It can be seen that the 4/6 individuals who received 12 mg total dose of 5-MeO-DMT benzoate in a biphasic fashion achieved mystical experiences, which represents a 66% success rate.

Series [6] can be described thus: Subjective Dose Intensity (SDI) / duration of the trip. The series is classed as in vivo, human.
Series [7] is classed as in vivo, human. From the text: For example, some subjects report nasal discomfort when treated with a single intranasal dose of a salt of 5-MeO-DMT. Additionally, some subjects experienced nausea and vomiting when given a higher single dose of a salt of 5-MeO-DMT. So, the frequency/likelihood of physical discomfort when using the 5-MeO-DMT salt should be minimised or substantially eliminated.

Series [8] is described as follows: Stability profile.
Series [9] can be described thus: Irritation tolerability. The note with it: in particular compared to the chloride salt.
Setting [10] is: 6 mg intranasal, single nostril.
Setting [11] is: 8 mg intranasal, single nostril.
The mark [12] stands for this setting: 10 mg intranasal, single nostril.
The mark [13] stands for this setting: 12 mg (biphasic): 4 mg one nostril then 8 mg other nostril.
[14] abbreviates: 12 mg biphasic vs 12 mg monophasic.
Setting [15] is: 12 mg intranasal, single nostril (monophasic).
[16] abbreviates: 12 mg total dose, biphasic (4 mg + 8 mg).

The structures appear in SMILES notation. Where a name gives a salt, the structure may show the parent alone. Read-outs that look alike come from different tables or passages of the source. Bounds are passed on as bounds.

Results on ten compounds are retold here after US20260306452A1, “5-METHOXY-N,N-DIMETHYLTRYPTAMINE (5-MEO-DMT) PHARMACEUTICAL COMPOSITIONS” (Beckley Psytech Limited, priority 2023, published 2026).

Usually Cmax stands for the maximum level reached in the sampled fluid or tissue. As a reminder, the Tmax is the time from dosing to the highest level.

Take `COc1ccc2[nH]cc(CCN(C)C)c2c1` [5-MeO-DMT, 5-methoxy-N,N-dimethyltryptamine]: the “shape of mean plasma concentration curve” value in [1] (biphasic administration) was “m-like biphasic curve”.

As for `COc1ccc2[nH]cc(CCN(C)C)c2c1.Cl` [5-MeO-DMT HCl], the “mean concentration profiles between doses” value in [2] (5 mg, 8 mg, 10 mg, 11 mg and 14 mg intranasal) is given as “substantially similar”. In addition, the dose-proportional pharmacokinetics result in [2] (intranasal, healthy subjects) is listed as “does not display dose-proportional pharmacokinetics”.

`Br.COc1ccc2[nH]cc(CCN(C)C)c2c1` [5-MeO-DMT hydrobromide]: the hygroscopicity result in series [3] is “substantially non-hygroscopic”. Moreover, the solubility result in series [4] is recorded as “high solubility”.

For `COc1ccc2[nH]cc(CCN(C)C)c2c1` [5-MeO-DMT tartrate], the total water uptake result in [3] is on record as “approximately 3.3 % w/w”. In addition, in series [3] (listed as tartrate salt of 5-MeO-DMT), the hygroscopicity entry is on record as “moderately hygroscopic”.

As for `COc1ccc2[nH]cc(CCN(C)C)c2c1.O=C(O)C(=O)O` [5-MeO-DMT oxalate], the hygroscopicity result in series [3] is on record as “moderately hygroscopic”.

For `COc1ccc2[nH]cc(CCN(C)C)c2c1` [5-MeO-DMT ketoglutarate], in series [3] (90% RH), the “rapid increase of water uptake” value is listed as 28.140 w/w. For the same compound, in series [3] (403RH as printed), the “gradual water uptake, lower humidity” value is given as 0.13 % w/w. In addition, the “gradual water uptake, upper humidity” value in series [3] (801 RH as printed) worked out at 2.55 w/w.

As for `COc1ccc2[nH]cc(CCN(C)C)c2c1.O=C(O)c1ccccc1` [5-MeO-DMT benzoate, 5-methoxy-N,N-dimethyltryptamine (5-MeO-DMT) Benzoate], the AUC inf in series [1] (4 mg intranasal) was found to be 5.0 ng·h/mL; in [1] (setting [10]), 9.8 ng·h/mL; in [1] (setting [11]) it was 14 ng·h/mL; in series [1] (setting [12]), 15.4 ng·h/mL; in [1] (setting [13]) it was 10.7 ng·h/mL; in series [1] (setting [15]) it was 23 ng·h/mL. Also, the Cmax in [1] (4 mg intranasal) stood at 8.7 ng/mL; in series [1] (setting [10]), 14.9 ng/mL; in [1] (setting [11]), 22.1 ng/mL; in series [1] (setting [12]), 32.3 ng/mL; in series [1] (setting [13]), 16.7 ng/mL; in series [1] (setting [15]) it was 28.9 ng/mL. Besides, the time of peak concentration (Tmax) in [1] (4 mg intranasal) stood at 7.0 min; in [1] (setting [10]) it was 9.0 min; in series [1] (setting [11]) it was 10.6 min; in [1] (setting [12]), 8.4 min; in series [1] (setting [13]) it was 27 min; in series [1] (setting [15]) it was 15.3 min. The T½ in series [1] (4 mg intranasal) came to 22.4 min; in series [1] (setting [10]) it was 22.2 min; in [1] (setting [11]) it was 17.7 min; in series [1] (setting [12]), 22.7 min; in [1] (setting [13]), 16.1 min; in series [1] (setting [15]), 26.6 min. Besides, the “peak plasma concentration, comparison” value in [1] (setting [14]) was “lower peak plasma concentration”. For the same compound, the “rise to peak mean plasma concentration” value in series [1] (setting [14]) was “slower rise to peak mean plasma concentration”. Besides, the “mean Cmax” value in [1] (12 mg dosage, intranasal) is on record as 29 ng/mL. The “observed peak plasma concentration vs prediction” value in series [1] (biphasic administration) is on record as “significantly lower than that which was expected”. Besides, the “dose linearity of pharmacokinetics” value in series [1] (intranasal, healthy subjects) is on record as “approximately dose linear”. Moreover, in series [5] (4 mg first dose followed by 8 mg second dose), the efficacy entry is reported as “good efficacy”. Besides, the “Peak exp. (%)” value in [5] (4 mg intranasal) is 0%; in [5] (setting [10]), 25%; in series [5] (setting [11]), 20%; in series [5] (setting [12]) it was 60%; in series [5] (setting [13]), 66%; in series [5] (setting [15]), 60%. In series [5] (12 mg biphasic vs other doses), the “% peak experience, comparison” value is listed as “the highest % peak experience”. In series [5] (setting [16]), the “individuals who achieved mystical experiences” value was 4/6. Further, the “success rate (mystical experiences, MEQ30)” value in [5] (setting [16]) amounted to 66%; in series [5] (singular 10 mg dose) it was 60%; in [5] (singular 12 mg dose), 60%. The MEQ30 score in [5] (single intranasal dose) is on record as greater than 3. In addition, the “Duration of the trip (estimate based on intensity)” value was 18 min in series [6] (4 mg intranasal); 31 min in [6] (setting [10]); 40 min in [6] (setting [11]); 46 min in [6] (setting [12]); 70 min in series [6] (setting [13]); 50 min in [6] (setting [15]). In series [6] (setting [14]), the “length of psychedelic experience, comparison” value is given as “longer psychedelic experience”. Besides, the “duration of ‘trip’, comparison” value in series [6] (12 mg biphasic vs other doses) is “longer duration of ‘trip’”. In series [6] (biphasic administration), the “subjective intensity/mystical experience despite lower peak plasma concentration” value was “did not result in a lower subjective intensity/mystical experience”. The “Vomiting (% subj. incl. PBO)” value came out at 33% in series [7] (4 mg intranasal); 0% in series [7] (setting [10]); 0% in series [7] (setting [11]); 0% in series [7] (setting [12]); 17% in series [7] (setting [13]); 29% in series [7] (setting [15]). Besides, the overall tolerability profile entry in series [7] (intranasal) was “good (and better than the corresponding and better known chloride salt)”. In addition, the hygroscopicity result in [3] is listed as “moderately hygroscopic”. In addition, in [8], the stability profile entry is given as “good stability profile”. Moreover, the irritation tolerability entry in series [9] is “good irritation tolerability”.

On to `COc1ccc2[nH]cc(CCN(C)C)c2c1` [5-MeO-DMT tosylate], for which the total water uptake result in [3] is listed as “approximately 1.9 % w/w”. Further, in series [3] (listed as tosylate salt), the hygroscopicity entry is reported as “slightly hygroscopic”.

Consider `CN(C)CCc1c[nH]c2ccc(O)cc12` [Bufotenin], for which the “detection of the O-demethylated metabolite in plasma” value in series [1] (6 mg dose level of 5-MeO-DMT benzoate, after the 16 minutes time point) was “only detected at very low levels”.

Consider `COc1ccc2[nH]cc(CCN(C)C)c2c1` [5-MeO-DMT phosphate], for which the hygroscopicity entry in series [3] (listed as phosphate salt) is listed as “slightly hygroscopic”.
